Experimental data taken from US7273848B2, “Apolipoprotein A-I agonists and their use to treat dyslipidemic disorders” (priority 1997, dated 2007).
No end group written: not given here.

How the values were obtained:
[1] = Lipid binding by fluorescence spectroscopy
Protocol: The lipid binding properties of the peptides synthesized in Section 6, supra, were tested by fluorescence measurements with labeled peptides, in the present case Tryptophane (Trp or W) or Naphtylalanine (Nal). The fluorescence spectra were recorded on a Fluoromax from Spex (Jobin-Yvon) equipped with a Xenon lamp of 150 W, two monochromators (excitation and emission), a photomultiplier R-928 for detection sensitive in the red up to 850 nm and a thermoelectric magnetic stirred cell holder. Quartz Suprasil cuvettes were used for measurements in the micromolar concentration range. A device of variable slits (from 0.4 to 5 nm) allows modulation of the incident and emitted intensities according to the concentration of peptide used. The reported values are in general the average of between 2 to 4 spectra. The peptide concentration is determined by absorption spectrometry on a Philips PU 8800 using the absorption band of the Trp (ε280 nm=5,550 M^−1 cm^−1 in Tris buffer) or the Nal (ε224 nm =92,770 M^−1 cm^−1 in methanol)
Fluorescence spectra of the peptides were recorded between 290 nm and 450 nm in Tris-HCl buffer (20 mM, pH=7.5), in the presence and absence of lipidic vesicles. The small unilamellar vesicles were formed after rehydration in buffer of the lyophilized phospholipids, dispersion and tip sonification under a N2 stream. The lipids used were either Egg PC/Chol. (20:1) or POPC/Chol. (20:1). The spectra were recorded at a peptide concentration of 2 μM and at a temperature of 37° C. The fluorescence reference standard in the case of Trp was N-acetyltryptophanylamide (NATA).
Lipid binding studies were done through progressive lipidic vesicle addition to the peptide in solution at 2 μM (slits: 5 nm in excitation and 1.5 nm in emission). Dilution effects were taken into account for the fluorescence intensity determination. The lipid concentrations were varied from 10 to 600 μM and the molar ratio of lipid to peptide (Ri) was varied from 5 to 300. The wavelength of excitation was set at 280 nm for both Trp and Nal.
The data were directly recorded and treated by an IBM-PC linked to the spectrofluorimeter through the DM3000F software from Spex. The spectra were corrected by substraction of the solvent contribution and by application of a coefficient given by the constructor taking into account the variation of the photomultiplier response versus the wavelength.
The fluorescence spectra of the peptides were characterized by the wavelength at their maximum of fluorescence emission and by their quantum yield compared to NATA in the case of peptides labeled with a tryptophane. The process of binding to lipids was analyzed by calculating the shift of the wavelength at the maximum of fluorescence emission, (λmax), and the variation of the relative fluorescence intensity of emission versus the lipid concentration. The relative fluorescence intensity is defined as the following ratio: (I-I0)λmax/I0λmax. I and I0 are both measured at the (λmax) corresponding to the initial free state of the peptide, i.e., without lipids. I is the intensity at a defined lipid to peptide ratio and I0 is the same parameter measured in absence of lipids. The absence of these variations is relevant of the absence of interactions of the peptides with the lipids.

[2] = Superose 6 gel filtration chromatography of peptide-lipid complexes; format: physicochemical; conditions: peptide/DPPC complexes, 1 mg peptide and 3 mgs DPPC, colyophilized, in 0.9% NaCl
Protocol: An aliquot of the resulting reconstituted preparation can be characterized to confirm that the complexes in the preparation have the desired size distribution; e.g., the size distribution of HDL. Gel filtration chromatography can be used to this end. In the working examples described infra, a Pharmacia Superose 6 FPLC gel filtration chromatography system was used. The buffer used contains 150 mM NaCl in 50 mM phosphate buffer, pH 7.4. A typical sample volume is 20 to 200 microliters of complexes containing 5 mgs peptide/ml. The column flow rate is 0.5 mls/min. A series of proteins of known molecular weight and Stokes' diameter as well as human HDL are used as standards to calibrate the column. The proteins and lipoprotein complexes are monitored by absorbance or scattering of light of wavelength 254 or 280 nm.
Peptide-phospholipid complexes containing peptide 149 (SEQ ID NO:149) were prepared by colyophilization as described above. The preparation contained 1 mg peptide and 3 mgs DPPC by weight. […] The chromatography was monitored by absorbance or scattering of light of wavelength 280 nm. […] The vast majority of both phospholipid and UV absorbance were recovered together in a few fractions with peaks at approximately 15.8 mls. […]

- lipid to peptide molar ratio at which burying of the tryptophane residue is maximal ([1]; EPC/Chol (20:1) SUVs): about 30
- λmax (nm) ([1]; Ri 0 (buffer, no lipids), 2 μM): 347 nm
- I/Io ([1]; Ri 0, 2 μM peptide, 37° C.): 0
- I/Io ([1]; Ri 5): 19.7
- λmax (nm) ([1]; Ri 5): 334.5 nm
- I/Io ([1]; Ri 10): 31.4
- λmax (nm) ([1]; Ri 10): 329 nm
- I/Io ([1]; Ri 30): 49.4
- λmax (nm) ([1]; Ri 30): 325.5 nm
- I/Io ([1]; Ri 60): 64.3
- λmax (nm) ([1]; Ri 60): 325 nm
- I/Io ([1]; Ri 100): 77
- λmax (nm) ([1]; Ri 100): 325.5 nm
- I/Io ([1]; Ri 200): 84
- λmax (nm) ([1]; Ri 200): 325 nm
- wavelength for the tryptophane maximum fluorescence emission after binding ([1]; bound to EPC/Chol (20:1) SUVs): 325 nm
- lipid binding (in words) ([1]; small unilamellar vesicles): binds very effectively
- Stokes' diameter [2]: 87 Angstroms
Sequence: PVLELFENLWERLLDALQKKLK [peptide 149]
